Results as given in paper PMC6381106 (Scientific Reports, 2019).
No end group written: not given here.

Columns and labels:
[1] = tested on: TNF-α secretion in THP-1 cells; assay: ELISA of IL-1β-induced TNF-α secretion in THP-1; assay type: cell-based, human
Description: In addition, the decline in cytokine–receptor interactions might suppress cytokine mRNA expression and cytokine production in endothelial cells and monocytes. Treatment with KCF18 suppressed TNF-α mRNA expression following cytokines TNF-α, IL-1β and IL-6 stimulation (Fig. 6). To assess the efficacy of KCF18, we performed the RT-qPCR in THP-1 and HMEC-1 cells and ELISA assay for detecting TNF-α secretion including a TNF-α blocking antibody (R&D systems, USA)[57]–[59] as an additional condition in their experiments. […] We further analyze whether the KCF18 could suppress IL-1β induced TNF-α or TNF-α induced IL-1β expressions by ELISA assay (Supporting Figure S7). […] Since TNF-α blocking antibody captures the TNF-α in the conditioned medium, it may interfere the detection of TNF-α by ELISA (Supporting Figure S7). In summary, indeed, KCF18 expresses the ability to reduce cytokines induced TNF-α mRNA and protein expression. […] We also assessed the ability of KCF18 to inhibit TNF-α-mediated p65 nuclear translocation and endothelial ICAM-1 expression (Supporting Figure S8). […]
Figure S7: Peptide KCF18 and TNF-a antagonist antibody affect the protein expression of cytokine s-induced TNF-α an d I L-1b in TH P-1 cells. TNF-α and IL-1b secretion levels induced by (A) IL-1b and (B) TNF-α in THP-1 were determined using ELISA assays. […]

[2] = tested on: TNF-α mRNA expression in HMEC-1 cells; assay: qPCR of cytokine-induced TNF-α mRNA in HMEC-1; assay type: cell-based, human; settings: qPCR relative to GAPDH
Method: (§1) Human micro-vascular endothelial cells-1 (HMEC-1, from American Type Culture Collection Manassas, USA) was cultured in MCDB 131 medium (Sigma, USA) with 15% fetal bovine serum (FBS; Sigma, USA). The medium was supplemented with 1% L-glutamine, 500 µg/ml streptomycin (Biowest, USA), 500 units/ml penicillin (Biowest, USA), 1 μg/ml hydrocortisone (Sigma, USA) and 10 ng/ml Epidermal Growth Factor (ProSpec, USA). The human acute monocytic leukemia cells (THP-1 cells) obtained from the Bioresource Collection and Research Center (Hsinchu, Taiwan) were cultivated in the RPMI-1640 medium (Invitrogen, USA) with 10% FBS. THP-1 were differentiated to macrophage by […] Phorbol 12-myristate 13-acetate (PMA; Sigma, USA) for 24 hours before peptides treatment.
(§2) Cells were grown to confluence in 6-cm^2 culture plates. Peptides were incubated with TNF-α (20 ng/ml) for 1 h and then treated the cells for 4 h. […] An aliquot (5 µg) of purified RNA was reverse transcribed into first-strand complementary DNA (cDNA) with a 2720 Thermal Cycler (Applied Biosystems, Grand Island, NY, USA), 200 U/μl M-MLV reverse-transcriptase (Invitrogen) and […] oligo(dT)-adapter primers (Invitrogen) in a 20 μl reaction mixture. […] Quantitation of gene expression was conducted relative to GAPDH expression levels.

[3] = tested on: TNF-α mRNA expression in THP-1 cells; assay: qPCR of cytokine-induced TNF-α mRNA in THP-1; assay type: cell-based, human; settings: qPCR relative to GAPDH; TNF-α blocking antibody 1 μg/ml, peptide 500 nM; three independent experiments (Figure S6A)
Method: as §1, §2

[4] = tested on: white blood cell infiltration in the peritoneal cavity, BABL/c mice; assay: Thioglycollate-induced acute peritonitis model; assay type: in vivo, mouse; settings: counts at 24 h
Method: The animal experiment was used 8- to 10-week-old male BABL/c mice to be the animal model. These mice were purchased from the National Laboratory Animal Breeding and Research Center, Taipei. The mice were housed in a temperature-controlled, light-cycled facility. Peritonitis was induced by an intraperitoneal injection of 4% (w/v) thioglycollate in 1 ml of sterile saline (Sigma–Aldrich, USA). Treatment with saline or peptides (5 mg/kg) was performed 4 h after the administration of thioglycollate by intravenous injection. At 24 h after thioglycollate injection, mice were killed by exposure to CO2, and 5 ml of HBSS was injected into the peritoneal cavity. Cells were obtained by aspirating peritoneal lavage. Differential cell counts were determined using a Hematology Analyzer (KX-21N; Sysmex, USA).

IL-6 = target: T1, IL-6 (Homo sapiens, UniProt P05231); assay: SPR binding to immobilized IL-6 (Biacore T200); settings: CM5 chip, IL-6 immobilized (approximately 2000 RU), single cycle, 2, 10, 25, 50, 100 μM peptide, 10 μl/min, 25 °C, monovalent binding model, read-out: equilibrium dissociation KD
T1 construct: purchased GOLDBIO.COM, USA 1110-06
Method: The recombinant proteins of TNF-α (catalog^#1130-01), IL-1β (catalog^#1110-01B), and IL-6 (catalog^#1110-06) were purchased from the GOLDBIO.COM, USA.
The peptide KCF18 predicted from molecular docking and MM/PBSA binding free energy calculations were synthesized to confirm whether the peptide can bind to the pro-inflammatory cytokines by using SPR measurements. A Biacore T200 workstation (GE Healthcare, USA) was used for SPR detection. These cytokines (250 μg/ml TNF-α and 400 μg/ml IL-6) were diluted into 10 mM sodium acetate buffer at pH 4.0 and immobilized onto a CM5 sensor chip using amine coupling (EDC-NHS) for 210 secs at a flow rate of 10 μl/min. Approximately 5000 and 2000 response units (RU) of cytokines TNF-α and IL-6 were immobilized on the sensor chip, respectively. The flow channel-1 also treated the EDC-NHS as a reference to reduce the non-specific binding between dextran and peptides. […] The complexes were allowed to associate for 180 secs and then to dissociate for 90 secs. Surfaces were regenerated with an injection of 2 mM MgCl2 at a flow rate of 30 µl/min for 30 secs. A monovalent binding model was used to generate and fit the equilibrium binding curves for each peptide to determine the KD of the binding of peptide KCF18 with the pro-inflammatory cytokines.

HMEC-1 cells = assay: Cell cytotoxic assay (WST-1); assay type: cell-based, human; settings: WST-1, 24 and 48 hours, 0.5 μM to 5 μM peptide (Figure S5)
Method: as §1
To assess whether the peptide KCF18 is toxic to the endothelial cells, 1 × 10^4 cells were placed into 96-well micro-plates and incubated for 2 hours for adherence. After adhesion, the medium with various concentrations of peptides (0.5 μM to 5 μM) were added to the wells. After 24 and 48 hours, the HMEC-1 cells were washed with Hank’s balanced salt solution and the survivals of HMEC-1 were detected by WST-1 assay kit (Roche, USA). The experiment was assessed in quadruplicate and repeated three times.

[5] = tested on: TNF-α-induced adhesion of THP-1 to HMEC-1 cells; assay: Monocyte binding assay, TNF-α-induced THP-1 adhesion to HMEC-1; assay type: cell-based, human; settings: various concentrations, 1 h pretreatment, then 20 ng/ml TNF-α 18 h; three independent experiments (Fig. 4D, Figure S4)
Method: as §1
(§3) To perform the test of monocyte adherence to endothelial cells monolayers, the HMEC-1 cell monolayers were cultivated on 24-well plates under serum-starvation condition prior to the monocyte binding assay. The peptides were added to the HMEC-1 cells for one hour prior to the activation by 20 ng/ml TNF-α (Sigma, USA), IL-1β (GOLDBIO, USA) and IL-6 (GOLDBIO, USA) for 18 hours. […] The adhered monocytes were detected and photographed (five images per well) by fluorescent microscopy and the amount of stuck THP-1 cells were counted by the software AlphaImager 2200 (Alpha Innotech, USA).

[6] = tested on: IL-1β-induced adhesion of THP-1 to HMEC-1 cells; assay: Monocyte binding assay, IL-1β-induced THP-1 adhesion to HMEC-1; assay type: cell-based, human; settings: various concentrations, 1 h pretreatment, then 20 ng/ml IL-1β 18 h; three independent experiments (Figure S4)
Method: as §1, §3

[7] = tested on: IL-6-induced adhesion of THP-1 to HMEC-1 cells; assay: Monocyte binding assay, IL-6-induced THP-1 adhesion to HMEC-1; assay type: cell-based, human; settings: various concentrations, 1 h pretreatment, then 20 ng/ml IL-6 18 h; three independent experiments (Figure S4)
Method: as §1, §3

[8] = target: T2, tumor necrosis factor-α (TNF-α), recombinant (UniProt P01375 77-233); assay: SPR; Biacore T200; cytokine (about 5000 RU TNF-α, about 2000 RU IL-6) amine-coupled to a CM5 chip; peptide flowed over, single cycle kinetics, KCF18 at 2, 10, 25, 50 and 100 μM, 10 μl/min, 25 °C; steady-state binding isotherm fitted with a monovalent binding model; settings: both partners purified
T2 construct: TNF-α, bought recombinant protein; The bought product is probably the soluble mature human form (surmise); Amine-coupled to a CM5 chip for SPR; source: bought: GOLDBIO.COM, USA (catalog #1130-01)

[9] = target: T3, interleukin-6 (IL-6), recombinant (UniProt P05231 30-212); assay: as above; settings: both partners purified
T3 construct: IL-6, bought recombinant protein; The simulations used human IL-6 (PDB 2IL6 with a modelled N-terminus); The bought product is probably mature human IL-6 (surmise); Amine-coupled to a CM5 chip for SPR; source: bought: GOLDBIO.COM, USA (catalog #1110-06)

T1 sequence (P05231 30-212): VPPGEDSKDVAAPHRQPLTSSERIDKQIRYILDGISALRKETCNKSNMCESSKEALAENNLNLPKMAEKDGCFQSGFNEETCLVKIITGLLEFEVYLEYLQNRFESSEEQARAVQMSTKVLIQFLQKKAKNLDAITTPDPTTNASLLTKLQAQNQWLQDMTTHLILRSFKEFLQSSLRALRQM
T2 sequence (P01375 77-233): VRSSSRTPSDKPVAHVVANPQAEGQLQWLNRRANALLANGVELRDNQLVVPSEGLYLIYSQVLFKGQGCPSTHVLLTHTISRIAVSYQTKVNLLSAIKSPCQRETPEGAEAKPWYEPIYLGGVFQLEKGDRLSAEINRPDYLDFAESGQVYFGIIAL

With “IL-1β: recombinant IL-1β (GOLDBIO), used as stimulus [reference compound]” the “induction of TNF-α secretion in THP-1” value ([1]; 20 ng/ml IL-1β as stimulus) was 2 fold.

In the case of “KCAKEMFAQKLPYSAVYF [mKCF18, mutant peptide of KCF18]”, the “TNF-α-induced TNF-α mRNA expression in HMEC-1, antibody comparison (in words)” value ([2]; TNF-α blocking antibody 1 μg/ml, peptide 500 nM, three independent experiments (Figure S6B)) is reported as “had no inhibitory effect on TNF-α induced TNF-α mRNA expression in both cells”, the “TNF-α-induced TNF-α mRNA expression in THP-1, antibody comparison (in words)” value [3] is reported as “had no inhibitory effect on TNF-α induced TNF-α mRNA expression in both cells” and the “IL-1β-induced TNF-α expression in THP-1 (in words)” value ([1]; 20 ng/ml IL-1β, pretreatment with peptide, relative to cell lysate concentration, three independent experiments (Figure S7A)) is reported as “could not inhibit IL-1β induced TNF-α expression”. The “WBC infiltration, comparison of mKCF18 with KCF18 (in words)” value ([4]; i.v. 4 h after i.p. thioglycollate, n = 3 for each group (Figure S9)) was “worse than KCF18 peptide”.

KCRKEMFKQKLPYSTVYF [KCF18] was tested, and the Kd (IL-6) was 111 µM and the “HMEC-1 cell viability vs control cells (in words)” value (HMEC-1 cells) was “no important discrepancy was noticed in cell viability among control cells and peptide-treated cells”.

With “CPLNGSTVYGHLRHCLSCSGTMVKF [CF25, a random peptide with 25 amino acids, negative control]” the “effect on TNF-α-induced monocyte binding to HMEC-1 (in words)” value [5] was “could not repress cytokine-increased monocyte binding to HMEC-1 cells”, the “effect on IL-1β-induced monocyte binding to HMEC-1 (in words)” value [6] was “could not repress cytokine-increased monocyte binding to HMEC-1 cells” and the “effect on IL-6-induced monocyte binding to HMEC-1 (in words)” value [7] was “could not repress cytokine-increased monocyte binding to HMEC-1 cells”. The “TNF-α-induced TNF-α mRNA expression in HMEC-1 (in words)” value ([2]; peptide incubated with TNF-α (20 ng/ml) 1 h, cells treated 4 h, three independent experiments (Fig. 6A)) was “had no inhibitory effect on TNF-α-induced TNF-α mRNA expression” and the “total white blood cell infiltration in the peritoneal cavity (in words)” value ([4]; 5 mg/kg i.v. 4 h after i.p. 4% thioglycollate, mean ± SEM, n = 5 KCF18, n = 7 CF25, n = 6 control, *P < 0.05 vs control (Fig. 7)) was “had no potential anti-inflammatory effect”.

B1: composite peptide KCF18 (peptide)
peptide: KCRKEMFKQKLPYSTVYF
notes: designed 18-residue composite peptide: KCRKEM from TNFR1, FKQKLP from IL-1R, YSTVYF from the IL-6 receptor; also called designed peptide KCF18; source: synthetic peptide (GeneMark, GMbiolab Co., Ltd., Taiwan; solid phase)
B1 gave a Kd [8] of 60.9 µM and a Kd [9] of 112 µM.
